Assay results taken from US20240124432A1, “HERBICIDAL COMPOUNDS” (SYNGENTA CROP PROTECTION AG, priority 2020, published 2024).

What was measured:
Type in all cases: in vivo
EPHHL [1] = assay: Pre-emergence biological efficacy; conditions: Euphorbia heterophylla, 312 h, evaluated after 13 days, read-out: damage to plant (100=total damage to plant; 0=no damage to plant)
How it was run: (§1)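 Pre-emergence spray applied one day after sowing in standard soil, compound delivered from an IF50-based emulsifiable formulation diluted in 0.2% Genapol XO80. Plants then grew under glasshouse conditions for 13 days before damage was rated on a 0 (none) to 100 (total) scale.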

IPOHE [2] = assay: Pre-emergence biological efficacy; conditions: Ipomoea hederacea, 312 h, evaluated after 13 days, read-out: damage to plant (100=total damage to plant; 0=no damage to plant)
How it was run: as §1

AMAPA [3] = assay: Pre-emergence biological efficacy; conditions: Amaranthus palmeri, 312 h, evaluated after 13 days, read-out: damage to plant (100=total damage to plant; 0=no damage to plant)
How it was run: as §1

SETFA [4] = assay: Pre-emergence biological efficacy; conditions: Setaria faberi, 312 h, evaluated after 13 days, read-out: damage to plant (100=total damage to plant; 0=no damage to plant)
How it was run: as §1

ECHCG [5] = assay: Pre-emergence biological efficacy; conditions: Echinochloa crus-galli, 312 h, evaluated after 13 days, read-out: damage to plant (100=total damage to plant; 0=no damage to plant)
How it was run: as §1

LOLPE [6] = assay: Pre-emergence biological efficacy; conditions: Lolium perenne, 312 h, evaluated after 13 days, read-out: damage to plant (100=total damage to plant; 0=no damage to plant)
How it was run: as §1

DIGSA = assay: Post-emergence biological efficacy; conditions: Digitaria sanguinalis, 312 h, evaluated after 13 days, read-out: damage to plant (100=total damage to plant; 0=no damage to plant)
How it was run: (§2)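 Plants grown 14 days in glasshouse, then sprayed post-emergence with compound formulated in IF50 and diluted in 0.2% Genapol XO80 to the desired dose. Damage scored after 13 days on a 0–100 scale (100 = total damage).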

EPHHL [7] = assay: Post-emergence biological efficacy; conditions: Euphorbia heterophylla, 312 h, evaluated after 13 days, read-out: damage to plant (100=total damage to plant; 0=no damage to plant)
How it was run: as §2

IPOHE [8] = assay: Post-emergence biological efficacy; conditions: Ipomoea hederacea, 312 h, evaluated after 13 days, read-out: damage to plant (100=total damage to plant; 0=no damage to plant)
How it was run: as §2

AMAPA [9] = assay: Post-emergence biological efficacy; conditions: Amaranthus palmeri, 312 h, evaluated after 13 days, read-out: damage to plant (100=total damage to plant; 0=no damage to plant)
How it was run: as §2

SETFA [10] = assay: Post-emergence biological efficacy; conditions: Setaria faberi, 312 h, evaluated after 13 days, read-out: damage to plant (100=total damage to plant; 0=no damage to plant)
How it was run: as §2

ELEIN = assay: Post-emergence biological efficacy; conditions: 312 h, evaluated after 13 days, read-out: damage to plant (100=total damage to plant; 0=no damage to plant)
How it was run: as §2

ECHCG [11] = assay: Post-emergence biological efficacy; conditions: Echinochloa crus-galli, 312 h, evaluated after 13 days, read-out: damage to plant (100=total damage to plant; 0=no damage to plant)
How it was run: as §2

CHEAL = assay: Post-emergence biological efficacy; conditions: Chenopodium album, 312 h, evaluated after 13 days, read-out: damage to plant (100=total damage to plant; 0=no damage to plant)
How it was run: as §2

LOLPE [12] = assay: Post-emergence biological efficacy; conditions: Lolium perenne, 312 h, evaluated after 13 days, read-out: damage to plant (100=total damage to plant; 0=no damage to plant)
How it was run: as §2

Row | Compound | pest or weed control at 250 g/ha (EPHHL [1]) [%] | pest or weed control at 250 g/ha (IPOHE [2]) [%] | pest or weed control at 250 g/ha (AMAPA [3]) [%] | pest or weed control at 250 g/ha (SETFA [4]) [%] | pest or weed control at 250 g/ha (ECHCG [5]) [%] | pest or weed control at 250 g/ha (LOLPE [6]) [%] | pest or weed control at 250 g/ha (DIGSA) [%] | pest or weed control at 250 g/ha (EPHHL [7]) [%] | pest or weed control at 250 g/ha (IPOHE [8]) [%] | pest or weed control at 250 g/ha (AMAPA [9]) [%] | pest or weed control at 250 g/ha (SETFA [10]) [%] | pest or weed control at 250 g/ha (ELEIN) [%] | pest or weed control at 250 g/ha (ECHCG [11]) [%] | pest or weed control at 250 g/ha (CHEAL) [%] | pest or weed control at 250 g/ha (LOLPE [12]) [%]
1 | CCOC(=O)C1(C)CC(c2cc(-c3cncc(C(F)(F)F)n3)c(F)cc2Cl)=NO1 (stereo not drawn) [Compound 1-727, Ethyl 3-[2-chloro-4-fluoro-5-[6-(trifluoromethyl)pyrazin-2-yl]phenyl]-5-methyl-4H-isoxazole-5-carboxylate] | 10 | 20 | 0 | 10 | 30 | 0 | 70 | 70 | 100 | 70 | 90 | 80 | 90 | 70 | 20
2 | CCOC(=O)C1(C)CC(c2cc(-c3cnc4c(c3)OC(F)(F)O4)c(F)cc2Cl)=NO1 (stereo not drawn) [Compound 1-451, Ethyl 3-[2-chloro-5-(2,2-difluoro-[1,3]dioxolo[4,5-b]pyridin-6-yl)-4-fluoro-phenyl]-5-methyl-4H-isoxazole-5-carboxylate] | 80 | 50 | 90 | 40 | 40 | 40 | 100 | 100 | 100 | 100 | 100 | 100 | 100 | 100 | 100
3 | CCOC(=O)C1(C)CC(c2cc(-c3cc(Cl)ncc3OC)c(F)cc2Cl)=NO1 (stereo not drawn) [Compound 1-511, Ethyl 3-[2-chloro-5-(2-chloro-5-methoxy-4-pyridyl)-4-fluoro-phenyl]-5-methyl-4H-isoxazole-5-carboxylate] | 0 | 0 | 0 | 0 | 0 | 0 | 30 | 50 | 60 | 40 | 30 | 40 | 30 | 50 | 0
4 | CCOC(=O)C1(C)CC(c2cc(-c3cc(C)cc(F)n3)c(F)cc2Cl)=NO1 (stereo not drawn) [Compound 1-367, Ethyl 3-[2-chloro-4-fluoro-5-(6-fluoro-4-methyl-2-pyridyl)-phenyl]-5-methyl-4H-isoxazole-5-carboxylate] | 0 | 0 | 0 | 0 | 0 | 0 | 50 | 30 | 40 | 0 | 40 | 20 | 40 | 20 | 0
5 | CCOC(=O)C1(C)CC(c2cc(-c3ncc(C(C)(F)F)cc3Cl)c(F)cc2Cl)=NO1 (stereo not drawn) [Compound 1-595, ethyl 3-[2-chloro-5-[3-chloro-5-(1,1-difluoroethyl)-2-pyridyl]-4-fluoro-phenyl]-5-methyl-4H-isoxazole-5-carboxylate] | 100 | 80 | 100 | 100 | 100 | 90 | 100 | 100 | 100 | 100 | 100 | 100 | 100 | 100 | 100
6 | CCOC(=O)C1(C)CC(c2cc(-c3ncc(C(C)=O)cc3Cl)c(F)cc2Cl)=NO1 (stereo not drawn) [Compound 1-631, Ethyl 3-[5-(5-acetyl-3-chloro-2-pyridyl)-2-chloro-4-fluoro-phenyl]-5-methyl-4H-isoxazole-5-carboxylate] | 0 | 0 | 0 | 0 | 0 | 0 | 30 | 20 | 40 | 10 | 10 | 10 | 40 | 20 | 0
7 | CCOC(=O)C1(C)CC(c2cc(-c3ccc(C(F)(F)F)nc3Cl)c(F)cc2Cl)=NO1 (stereo not drawn) [Compound 1-655, Ethyl 3-[2-chloro-5-[2-chloro-6-(trifluoromethyl)-3-pyridyl]-4-fluoro-phenyl]-5-methyl-4H-isoxazole-5-carboxylate] | 90 | 40 | 100 | 30 | 40 | 40 | 70 | 100 | 100 | 100 | 90 | 80 | 90 | 100 | 80
8 | CCOC(=O)C1(C)CC(c2cc(-c3ccc(C)nc3)c(F)cc2Cl)=NO1 (stereo not drawn) [Compound 1-283, Ethyl 3-[2-chloro-4-fluoro-5-(6-methyl-3-pyridyl)phenyl]-5-methyl-4H-isoxazole-5-carboxylate] | 20 | 0 | 0 | 0 | 0 | 0 | 20 | 60 | 40 | 70 | 20 | 0 | 10 | 30 | 0
9 | CCOC(=O)C1(C)CC(c2cc(-c3cncc(Cl)c3)c(F)cc2Cl)=NO1 (stereo not drawn) [Compound 1-271, Ethyl 3-[2-chloro-5-(5-chloro-3-pyridyl)-4-fluoro-phenyl]-5-methyl-4H-isoxazole-5-carboxylate] | 0 | 0 | 0 | 0 | 0 | 0 | 20 | 40 | 100 | 90 | 50 | 20 | 20 | 70 | 0
